According to the OligoGym collection:
“And” between values parts separate entries of the source, which are not always exact repeats. Equal entries are not always repeated. After the bases stand the sugars from the 5' end (letter, count) and the backbone: PS all phosphorothioate, else s phosphorothioate and o phosphodiester by linkage. Methylation of C is not given here. e = 2'-O-(2-methoxyethyl) (MOE); k = constrained ethyl (cEt); d = 2'-deoxy (DNA)

Molecular target: SOD1
Settings: ASO

“CAGGATACATTTCTACAGCT (sugars e5 d10 e5, linkages s1 o3 s11 o3 s1)” gave a target mRNA inhibition (A431, 0.12 µM) of 13%, a target mRNA inhibition (A431, 0.6 µM) of 24% and a target mRNA inhibition (A431, 3 µM) of 41%. For the same sequence, the target mRNA inhibition (A431, 15 µM) was 62%, the target mRNA inhibition (HepG2, 0.222 µM) was 38% and the target mRNA inhibition (HepG2, 0.667 µM) was 70%. For the same sequence, the target mRNA inhibition (HepG2, 2 µM) was 95% and the target mRNA inhibition (HepG2, 6 µM) was 88%.
Work on “CATCTGCTTTTTCATGGACC (sugars e5 d10 e5, PS)” yielded a target mRNA inhibition (HepG2, 3 µM) of 46%.
“GATTACAGTGTTTAATG (sugars e3 k2 d7 k2 e3, PS)” was tested, and the target mRNA inhibition (HepG2, 3 µM) was 10%.
“TTCATCCTTTGGCCCAC (sugars e3 k2 d7 k2 e3, PS)” gave a target mRNA inhibition (HepG2, 3 µM) of 26%.
With “TTGCCCAAGTCATCTGC (sugars e3 k2 d7 k2 e3, PS)” the target mRNA inhibition (HepG2, 3 µM) was 92%.
With “TCTACAGCTAGCAGGAT (sugars e2 k2 d9 k2 e2, PS)” the target mRNA inhibition (HepG2, 0.1875 µM) was 27%, the target mRNA inhibition (HepG2, 0.75 µM) was 61% and the target mRNA inhibition (HepG2, 3 µM) was 85%. For the same sequence, the target mRNA inhibition (HepG2, 4 µM) was 83% and the target mRNA inhibition (HepG2, 12 µM) was 96%.
Work on “GAGGACCTGCACTGGTA (sugars e3 k2 d7 k2 e3, PS)” yielded a target mRNA inhibition (HepG2, 3 µM) of 17%.
Sequence “GATAACAGATGAGTTAA (sugars e3 k2 d7 k2 e3, PS)” has a target mRNA inhibition (HepG2, 3 µM) of 11%.
With “GAGACTACGACGCAAACCAG (sugars e5 d10 e5, PS)” the target mRNA inhibition (HepG2, 4 µM) was 23%.
“TATTGGGCGATCCCAAT (sugars e2 k2 d8 k2 e3, PS)” was tested, and the target mRNA inhibition (HepG2, 4 µM) was 19%.
“AGTGAGGACCTGCACTG (sugars e3 k2 d7 k2 e3, PS)” gave a target mRNA inhibition (HepG2, 3 µM) of 21%.
“TAATGTTTATCAGGATA (sugars e2 k2 d8 k2 e3, PS)” showed a target mRNA inhibition (HepG2, 0.1875 µM) of 48%, a target mRNA inhibition (HepG2, 0.75 µM) of 78% and a target mRNA inhibition (HepG2, 3 µM) of 91%. The target mRNA inhibition (HepG2, 4 µM) was 90% and the target mRNA inhibition (HepG2, 12 µM) was 95%.
With “TGGCAAAATACAGGTCA (sugars e2 k2 d8 k2 e3, PS)” the target mRNA inhibition (HepG2, 5 µM) was 33%.
With “CACATCGGCCACACCATCTT (sugars e5 d10 e5, PS)” the target mRNA inhibition (HepG2, 5 µM) was 27% and 13%.
With “TCCTTTGGCCCACCGTG (sugars e3 k2 d7 k2 e3, PS)” the target mRNA inhibition (HepG2, 3 µM) was 39%.
With “TCTGACAAGTTTAATAC (sugars e2 k2 d8 k2 e3, PS)” the target mRNA inhibition (HepG2, 5 µM) was 33%.
Sequence “AGACCTCCGCGCCTCGCCCA (sugars e5 d10 e5, PS)” has a target mRNA inhibition (HepG2, 12 µM) of 84%.
For “AAATACAGGTCATTGAA (sugars e3 k2 d7 k2 e3, PS)”, the target mRNA inhibition (HepG2, 3 µM) was 2%.
“ACAGTGTTTAATGTTTA (sugars e2 k2 d9 k2 e2, PS)” gave a target mRNA inhibition (HepG2, 0.1875 µM) of 40%, a target mRNA inhibition (HepG2, 0.75 µM) of 67% and a target mRNA inhibition (HepG2, 3 µM) of 86%. For the same sequence, the target mRNA inhibition (HepG2, 4 µM) was 79%, the target mRNA inhibition (HepG2, 5 µM) was 84% and the target mRNA inhibition (HepG2, 12 µM) was 83% and 88%.
Sequence “GGTCCTGGTTCCGAGGACTG (sugars e5 d10 e5, PS)” has a target mRNA inhibition (HepG2, 4 µM) of 14%.
“ACCCATCTGTGATTTAA (sugars e2 k2 d9 k2 e2, PS)” showed a target mRNA inhibition (HepG2, 5 µM) of 44%.
In the case of “TCTCACTACAGGTACTT (sugars e2 k2 d9 k2 e2, PS)”, the target mRNA inhibition (HepG2, 5 µM) is reported as 46%.
For “GGATTCTTTTAATAGCC (sugars e2 k2 d9 k2 e2, PS)”, the target mRNA inhibition (HepG2, 5 µM) was 19%.
In the case of “TTAATACCCATCTGTGATTT (sugars e5 d10 e5, PS)”, the target mRNA inhibition (HepG2, 5 µM) is reported as 11%.
Work on “TTAATACCCATCTGTGA (sugars e2 k2 d9 k2 e2, PS)” yielded a target mRNA inhibition (HepG2, 5 µM) of 26%.
For “TACAGCTAGCAGGATAA (sugars e2 k2 d9 k2 e2, PS)”, the target mRNA inhibition (HepG2, 0.1875 µM) was 24%, the target mRNA inhibition (HepG2, 0.75 µM) was 71% and the target mRNA inhibition (HepG2, 3 µM) was 85%. The target mRNA inhibition (HepG2, 4 µM) was 86% and the target mRNA inhibition (HepG2, 12 µM) was 98%.
“AACTATACAAATCTTCC (sugars e2 k2 d8 k2 e3, PS)” showed a target mRNA inhibition (HepG2, 5 µM) of 60%.
For “TGGAATCCATGCAGGCC (sugars e3 k2 d7 k2 e3, PS)”, the target mRNA inhibition (HepG2, 3 µM) was 12%.
“GGAATGTTTATTGGGCG (sugars e2 k2 d9 k2 e2, PS)” showed a target mRNA inhibition (HepG2, 4 µM) of 58%.
Sequence “TACAGGGTTTTTATTCA (sugars e2 k2 d8 k2 e3, PS)” has a target mRNA inhibition (HepG2, 5 µM) of 13%.
With “TCCAAGGGAATGTTTAT (sugars e2 k2 d9 k2 e2, PS)” the target mRNA inhibition (HepG2, 4 µM) was 57%.
In the case of “AATGTTTATTGGGCGAT (sugars e3 k2 d7 k2 e3, PS)”, the target mRNA inhibition (HepG2, 3 µM) is reported as 30%.
“AAATACAGGTCATTGAA (sugars e2 k2 d8 k2 e3, PS)” gave a target mRNA inhibition (HepG2, 5 µM) of 28%.
“AAATCTTCCAAGTGATC (sugars e3 k2 d7 k2 e3, PS)” gave a target mRNA inhibition (HepG2, 3 µM) of 4%.
“TCTTCATCCTTTGGCCC (sugars e3 k2 d7 k2 e3, PS)” showed a target mRNA inhibition (HepG2, 3 µM) of 15%.
With “CCACCAGTGTGCGGCCAATG (sugars e5 d10 e5, PS)” the target mRNA inhibition (HepG2, 5 µM) was 22%.
With “CCAAGTCATCTGCTTTT (sugars e3 k2 d7 k2 e3, PS)” the target mRNA inhibition (HepG2, 3 µM) was 50%.
In the case of “CCACCTTTGCCCAAGTC (sugars e3 k2 d7 k2 e3, PS)”, the target mRNA inhibition (HepG2, 3 µM) is reported as 91%.
For “TTTATTGGGCGATCCCA (sugars e2 k2 d9 k2 e2, PS)”, the target mRNA inhibition (HepG2, 4 µM) was 46%.
Sequence “ATTCTGACAAGTTTAAT (sugars e3 k2 d7 k2 e3, PS)” has a target mRNA inhibition (HepG2, 3 µM) of 9%.
Work on “TTACAGTGTTTAATGTTT (sugars e5 d8 e5, linkages s1 o3 s9 o2 s2)” yielded a target mRNA inhibition (A431, 0.12 µM) of 4%, a target mRNA inhibition (A431, 0.6 µM) of 0% and a target mRNA inhibition (A431, 3 µM) of 33%. For the same sequence, the target mRNA inhibition (A431, 15 µM) was 17%, the target mRNA inhibition (HepG2, 0.222 µM) was 17% and the target mRNA inhibition (HepG2, 0.667 µM) was 42%. For the same sequence, the target mRNA inhibition (HepG2, 2 µM) was 76% and the target mRNA inhibition (HepG2, 6 µM) was 54%.
“AAGATTACAGTGTTTAA (sugars e3 k2 d7 k2 e3, PS)” gave a target mRNA inhibition (HepG2, 3 µM) of 34%.
In the case of “TAAGATTACAGTGTTTA (sugars e3 k2 d7 k2 e3, PS)”, the target mRNA inhibition (HepG2, 3 µM) is reported as 54%.
